Results: patent US20250145594A1, “MODULATORS OF THE INTEGRATED STRESS PATHWAY” (Calico Life Sciences LLC, priority 2020, published 2025)
pEC50: −log10 of the molar value.

System: ATF4 luciferase reporter in HEK293T cells
Assay: ATF4-Luc assay (in vitro model of VWMD)
Format: cell-based, human
Settings: Homo sapiens, HEK-293T, 7 h, HEK293T cells carrying the ATF4 luciferase reporter, 1 μg/mL tunicamycin, One Glo luminescence
In short: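 Tunicamycin (1 μg/mL) stress with co-added compound for 7 hours in HEK293T cells stably carrying an ATF4 5′-UTR–luciferase reporter. EC50 values come from the luminescent signal (One Glo).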

Structure (SMILES) | pEC50
O=C(NC12CC(c3cnc(OCCOC(F)(F)F)o3)(C1)C2)[C@H]1C[C@@H](O)c2cc(Cl)ccc2O1 [Compound 414, (2R,4R)-6-chloro-4-hydroxy-N-(3-{2-[2-(trifluoromethoxy)ethoxy]-1,3-oxazol-5-yl}bicyclo[1.1.1]pentan-1-yl)-3,4-dihydro-2H-1-benzopyran-2-carboxamide] | > 8.00
O=C(NC12CC(c3ccnc(-n4cc(C(F)(F)F)cn4)c3)(C1)C2)[C@H]1C[C@@H](O)c2cc(Cl)ccc2O1 [Compound 560, (2R,4R)-6-chloro-4-hydroxy-N-(3-{2-[4-(trifluoromethyl)-1H-pyrazol-1-yl]pyridin-4-yl}bicyclo[1.1.1]pentan-1-yl)-3,4-dihydro-2H-1-benzopyran-2-carboxamide] | 7.30 to 8.00
O=C(NC12CC(n3cc(-c4ccc(C(F)(F)F)cn4)cn3)(C1)C2)[C@H]1C[C@H](O)c2cc(Cl)ccc2O1 [Compound 546, (2R,4S)-6-chloro-4-hydroxy-N-(3-{4-[5-(trifluoromethyl)pyridin-2-yl]-1H-pyrazol-1-yl}bicyclo[1.1.1]pentan-1-yl)-3,4-dihydro-2H-1-benzopyran-2-carboxamide] | 7.30 to 8.00
O=C(NC12CC(c3cnn(CCCOC(F)(F)F)c3)(C1)C2)[C@H]1C[C@@H](O)c2cc(Cl)ccc2O1 [Compound 528, (2R,4R)-6-chloro-4-hydroxy-N-(3-{1-[3-(trifluoromethoxy)propyl]-1H-pyrazol-4-yl}bicyclo[1.1.1]pentan-1-yl)-3,4-dihydro-2H-1-benzopyran-2-carboxamide] | 7.30 to 8.00
O=C(NC12CC(n3cc(N4CCN(CC(F)(F)F)CC4=O)cn3)(C1)C2)[C@H]1C[C@@H](O)c2cc(Cl)ccc2O1 [Compound 383, (2R,4R)-6-chloro-4-hydroxy-N-(3-{4-[2-oxo-4-(2,2,2-trifluoroethyl)piperazin-1-yl]-1H-pyrazol-1-yl}bicyclo[1.1.1]pentan-1-yl)-3,4-dihydro-2H-1-benzopyran-2-carboxamide] | > 8.00
O=C(CO[C@H]1C[C@@H](OC(F)(F)F)C1)NC12CCC(NC(=O)[C@H]3C[C@@H](O)c4cc(C(F)(F)F)ccc4O3)(CC1)C[C@@H]2O [Compound 460, (2R,4R)-4-hydroxy-N-[(3S)-3-hydroxy-4-(2-{[(1s,3R)-3-(trifluoromethoxy)cyclobutyl]oxy}acetamido)bicyclo[2.2.2]octan-1-yl]-6-(trifluoromethyl)-3,4-dihydro-2H-1-benzopyran-2-carboxamide] | > 8.00
O=C(COc1ccc(Cl)c(F)c1)N[C@H]1CC[C@H](n2cc(-c3ccc(C(F)(F)F)cn3)cn2)CC1 [Compound 598, 2-(4-chloro-3-fluorophenoxy)-N-[(1r,4r)-4-(4-[5-(trifluoromethyl)pyridin-2-yl]-1H-pyrazol-1-yl)cyclohexyl]acetamide] | > 8.00
O=C(N[C@H]1CC[C@H](n2cc(OCC(F)(F)F)cn2)CC1)[C@H]1C[C@@H](O)c2cc(Cl)ccc2O1 [Compound 524, (2R,4R)-6-chloro-4-hydroxy-N-{(1r,4R)-4-[4-(2,2,2-trifluoroethoxy)-1H-pyrazol-1-yl]cyclohexyl}-3,4-dihydro-2H-1-benzopyran-2-carboxamide] | 7.30 to 8.00
O=C(NC12CC(n3cc(-c4ccc(C(F)(F)F)cn4)cn3)(C1)C2)[C@H]1C[C@@H](O)c2cc(F)c(F)cc2O1 [Compound 553, (2R,4R)-6,7-difluoro-4-hydroxy-N-(3-{4-[5-(trifluoromethyl)pyridin-2-yl]-1H-pyrazol-1-yl}bicyclo[1.1.1]pentan-1-yl)-3,4-dihydro-2H-1-benzopyran-2-carboxamide] | > 8.00
COc1ncc(-c2cnn(C34CC(NC(=O)[C@@H]5C[C@@H](O)c6cc(Cl)ccc6O5)(C3)C4)c2)cn1 [Compound 396, (2S,4R)-6-chloro-4-hydroxy-N-{3-[4-(2-methoxypyrimidin-5-yl)-1H-pyrazol-1-yl]bicyclo[1.1.1]pentan-1-yl}-3,4-dihydro-2H-1-benzopyran-2-carboxamide] | 6.60 to 7.30
O=C(NC12CC(n3cc(N4CC[C@@H](OC(F)F)C4)cn3)(C1)C2)[C@H]1C[C@@H](O)c2cc(Cl)ccc2O1 [Compound 318, (2R,4R)-6-chloro-N-(3-{4-[(3R)-3-(difluoromethoxy)pyrrolidin-1-yl]-1H-pyrazol-1-yl}bicyclo[1.1.1]pentan-1-yl)-4-hydroxy-3,4-dihydro-2H-1-benzopyran-2-carboxamide] | 6.60 to 7.30
O=C(NC12CC(n3cc([C@H]4[C@@H]5CN(CC(F)(F)F)C[C@@H]54)cn3)(C1)C2)[C@H]1C[C@@H](O)c2cc(Cl)ccc2O1 [Compound 583, (2R,4R)-6-chloro-4-hydroxy-N-(3-{4-[(1R,5S,6s)-3-(2,2,2-trifluoroethyl)-3-azabicyclo[3.1.0]hexan-6-yl]-1H-pyrazol-1-yl}bicyclo[1.1.1]pentan-1-yl)-3,4-dihydro-2H-1-benzopyran-2-carboxamide] | > 8.00
O=C(NC12CC(n3cc(OCCOCC(F)(F)F)cn3)(C1)C2)[C@H]1C[C@@H](O)c2cc(Cl)ccc2O1 [Compound 425, (2R,4R)-6-chloro-4-hydroxy-N-(3-{4-[2-(2,2,2-trifluoroethoxy)ethoxy]-1H-pyrazol-1-yl}bicyclo[1.1.1]pentan-1-yl)-3,4-dihydro-2H-1-benzopyran-2-carboxamide] | > 8.00
O=C(COc1ccc(Cl)c(F)c1)NC12CC(c3ccc(C(=O)N4CC(COC(F)(F)F)C4)nc3)(C1)C2 [Compound 600, 2-(4-chloro-3-fluorophenoxy)-N-[3-(6-{3-[(trifluoromethoxy)methyl]azetidine-1-carbonyl}pyridin-3-yl)bicyclo[1.1.1]pentan-1-yl]acetamide] | > 8.00
O=C(NC12CC(n3cc(OCCOC(F)(F)F)cn3)(C1)C2)[C@H]1C[C@H](O)c2cc(Cl)c(Cl)cc2O1 [Compound 436, (2R,4S)-6,7-dichloro-4-hydroxy-N-(3-{4-[2-(trifluoromethoxy)ethoxy]-1H-pyrazol-1-yl}bicyclo[1.1.1]pentan-1-yl)-3,4-dihydro-2H-1-benzopyran-2-carboxamide] | > 8.00
O=C(NC12CC(n3cc(-c4ccc(OC(F)(F)F)cn4)cn3)(C1)C2)[C@H]1C[C@@H](O)c2cc(Cl)ccc2O1 [Compound 308, (2R,4R)-6-chloro-4-hydroxy-N-(3-{4-[5-(trifluoromethoxy)pyridin-2-yl]-1H-pyrazol-1-yl}bicyclo[1.1.1]pentan-1-yl)-3,4-dihydro-2H-1-benzopyran-2-carboxamide] | > 8.00
O=C(COc1ccc(Cl)c(F)c1)NC12CC(n3cc(OCCOC(F)(F)F)cn3)(C1)C2 [Compound 451, 2-(4-chloro-3-fluorophenoxy)-N-(3-{4-[2-(trifluoromethoxy)ethoxy]-1H-pyrazol-1-yl}bicyclo[1.1.1]pentan-1-yl)acetamide] | > 8.00
O=C(N[C@H]1CC[C@H](n2cc(N3CC[C@@H](OC(F)(F)F)C3)cn2)CC1)[C@H]1C[C@@H](O)c2cc(Cl)ccc2O1 [Compound 581, (2R,4R)-6-chloro-4-hydroxy-N-[(1R,4R)-4-{4-[(3R)-3-(trifluoromethoxy)pyrrolidin-1-yl]-1H-pyrazol-1-yl}cyclohexyl]-3,4-dihydro-2H-1-benzopyran-2-carboxamide] | 7.30 to 8.00
O=C(NC12CC(n3cc(OCCOC(F)(F)F)cn3)(C1)C2)[C@@H]1C[C@@H](O)c2cc(Cl)ccc2O1 [Compound 631, (2S,4R)-6-chloro-4-hydroxy-N-(3-{4-[2-(trifluoromethoxy)ethoxy]-1H-pyrazol-1-yl}bicyclo[1.1.1]pentan-1-yl)-3,4-dihydro-2H-1-benzopyran-2-carboxamide] | 7.30 to 8.00
O=C(NC12CC(n3cc(-c4ccc(OC(F)(F)F)cn4)cn3)(C1)C2)[C@H]1C[C@H](O)c2cc(C(F)(F)F)ccc2O1 [Compound 551, (2R,4S)-4-hydroxy-N-(3-{4-[5-(trifluoromethoxy)pyridin-2-yl]-1H-pyrazol-1-yl}bicyclo[1.1.1]pentan-1-yl)-6-(trifluoromethyl)-3,4-dihydro-2H-1-benzopyran-2-carboxamide] | > 8.00
O=C(CO[C@H]1C[C@@H](OC(F)(F)F)C1)NC12CC(NC(=O)[C@H]3C[C@@H](O)c4cc(Cl)ccc4O3)(C1)C2 [Compound 164, (2R,4R)-6-chloro-4-hydroxy-N-[3-(2-{[cis-3-(trifluoromethoxy)cyclobutyl]oxy}acetamido)bicyclo[1.1.1]pentan-1-yl]-3,4-dihydro-2H-1-benzopyran-2-carboxamide] | > 8.00
O=C(NC12CC(n3cc(N4CC(COC(F)(F)F)C4)cn3)(C1)C2)[C@H]1C[C@@H](O)c2cc(Cl)ccc2O1 [Compound 337, (2R,4R)-6-chloro-4-hydroxy-N-[3-(4-{3-[(trifluoromethoxy)methyl]azetidin-1-yl}-1H-pyrazol-1-yl)bicyclo[1.1.1]pentan-1-yl]-3,4-dihydro-2H-1-benzopyran-2-carboxamide] | 7.30 to 8.00
O=C(NC12CC(n3cc([C@@H]4CC[C@H](OC(F)(F)F)C4)nn3)(C1)C2)[C@H]1C[C@@H](O)c2cc(Cl)ccc2O1 (mixture of isomers) [Compound 539, (2R,4R)-6-chloro-4-hydroxy-N-(3-{4-[(1RS,3SR)-3-(trifluoromethoxy)cyclopentyl]-1H-1,2,3-triazol-1-yl}bicyclo[1.1.1]pentan-1-yl)-3,4-dihydro-2H-1-benzopyran-2-carboxamide] | 7.30 to 8.00
O=C(NC12CC(c3ccc(OCCCOC(F)(F)F)nc3)(C1)C2)[C@H]1C[C@@H](O)c2cc(Cl)ccc2O1 [Compound 438, (2R,4R)-6-chloro-4-hydroxy-N-(3-{6-[3-(trifluoromethoxy)propoxy]pyridin-3-yl}bicyclo[1.1.1]pentan-1-yl)-3,4-dihydro-2H-1-benzopyran-2-carboxamide] | 7.30 to 8.00
O=C(NC12CC(c3ccc(OCCOC(F)(F)F)nc3)(C1)C2)[C@H]1C[C@@H](O)c2cc(Cl)c(F)cc2O1 [Compound 446, (2R,4R)-6-chloro-7-fluoro-4-hydroxy-N-(3-{6-[2-(trifluoromethoxy)ethoxy]pyridin-3-yl}bicyclo[1.1.1]pentan-1-yl)-3,4-dihydro-2H-1-benzopyran-2-carboxamide] | 7.30 to 8.00
